Assay results from US20210353652A1, “TUMOR MICROENVIRONMENT-ACTIVATED DRUG-BINDER CONJUGATES, AND USES RELATED THERETO” (Trustees of Tufts College, priority 2018, published 2021).

Assays:
AML cell lines = assay: Pyroptosis in AML cell lines in vitro; type: cell-based
[1] = tested on: humanized PD-L1 MC38 tumour cell line; assay: Humanised PD-L1 MC38 syngeneic model of colorectal cancer; type: in vivo; conditions: VbP 0.02 mg/mouse per os added to AVA04-251 Fc, compared to the monotherapy
Description: Mice (n=8/group, C57BL/6) were inoculated subcutaneously in the right flank region with a humanized PD-L1 MC38 tumour cell line (in which the mouse PD-L1 extracellular domain was replaced by the equivalent human domain; CrownBio Inc). AVA04-251 Fc and associated control (SQTgly Fc) were injected via the IP route once tumours were >80 mm^3. Treatments were administered twice a week for 3 weeks at a dose of 10 mg/kg (AVA04-251 Fc and its control, SQTgly Fc). VbP (Tufts University) was administered 5 times a week (with 2 days off) at 0.02 mg/mouse per os. Overall, tumour growth inhibition was shown for both treatments (FIG. 17).
Seventy (70) days after the inoculation of the tumour, three (3) mice from the group treated with AVA04-251 Fc and VbP were inoculated a second time with the huMC38 cell line (a control group was inoculated at the same time) to assess if the immune system developed a memory response, preventing subsequent tumor growth.

J774A.1 cells = assay: Pyroptosis (LDH release) in J774 mouse macrophage cell line; type: cell-based; conditions: 1 μM, 24 hours
Description: Affimer-linker-VbP pro-drugs are designed to be cleaved by FAPα to release VbP.
J774A.1 cells (mouse monocyte macrophages; ATCC) were grown in DMEM-10%-FBS in 75 cm^2 tissue culture flasks, harvested by scraping in PBS, resuspended in DMEM-1%-FBS, plated in 96-well plates (VWR) at a density of 5×10^3 cells per well, and placed in a 5% C02 incubator at 37° C. After incubation for 24 hours, serial 10-fold dilutions of VbP, unconjugated AVA04-182 Fc, linker-VbP pro-drugs (6325, 6326 and 6328), and Affimer-linker-VbP pro-drugs (AVA04-182 Fc-6325, −6326 and −6328) were added to wells with and without addition of rhFAPα (R&D Systems) at a final concentration of 25 nM. Each reaction mixture was tested in triplicate and incubated for a further 24 hours at 37° C. Lactate dehydrogenase (LDH; a marker of pyroptosis) released into culture supernatants, was measured using the CytoTox 96 Non-Radioactive Cytotoxicity Assay (Promega) according to the manufacturer's instructions. LDH concentrations were determined by absorbance (A490) measurements in a SpectraMax® M2^e microplate reader (Molecular Devices). Percent LDH release was calculated by subtracting the background release in wells containing DMEM-1%-FBS without cells and expressing the resulting values as percentages of the LDH released by the CytoTox 96 lysis reagent.

[2] = Acute toxicity study in Sprague Dawley rats; type: in vivo, rat; conditions: SD rats, subcutaneous
Description: The comparative in vivo safety of a representative linker-VbP pro-drug administered subcutaneously at a dose equivalent to 10-fold the maximum tolerated dose (MTD) of VbP was established in Sprague Dawley (SD) rats, i.e., 10 times the dose of VbP that […] of the SD rats.
Prior to administration, MAL-activated 6323 (PEGs-linker-VbP pro-drug) was conjugated to L-cysteine in order to inactivate the MAL moiety. L-cysteine (5 mg; Sigma) was dissolved in 1 mL of MAL-activated 6323 (4.8 mM in 50 mM MES, 150 mM NaCl, pH 6) to achieve an approximate stoichiometry of 10:1 L-cysteine:6323. The resulting solution was incubated at room temperature for 2-3 hours, after which time the reaction was confirmed to have reached completion by LC-MS analysis. The resulting Cys-modified 6323 was purified by preparative RP-HPLC using a Supelco Discovery C18 column with a 2:98 acetonitrile:water (0.1% TFA) gradient over 10 minutes, and was subsequently lyophilized.
Six (6) male SD rats (Charles River) were injected subcutaneously with 1.47 mg/kg Cys-modified 6323 (equivalent to 0.25 mg VbP/kg) in sterile PBS. […] In this study, the MTD for VbP was considered to be 0.025 mg VbP/kg. At 24 hours, 5 of the 6 animals administered Cys-modified 6323 at a dose equivalent to 10-times the VbP MTD survived, indicating a safety margin for the VbP pro-drug relative VbP.

MV4-11 AML cells = assay: MV4-11 AML model in NOD-SCID Il2rg-/- mice; type: in vivo, mouse; conditions: intraperitoneal once a day, 5 days on, 2 days off
Description: One million MV4-11 cells injected into the tail vein of 10-week-old female NOD-SCID Il2rg−/−mice.

[3] = molecular target: mouse PD-L1 Fc (R&D Systems) (mouse) (UniProt Q9EP73); assay: PD-1/PD-L1 competitive ELISA: antibody preincubated with mouse PD-L1 Fc, then loaded on plate-coated mouse PD-1 Fc; % inhibition
Sequence of mouse PD-L1 Fc (R&D Systems) (mouse) (Q9EP73 19-238): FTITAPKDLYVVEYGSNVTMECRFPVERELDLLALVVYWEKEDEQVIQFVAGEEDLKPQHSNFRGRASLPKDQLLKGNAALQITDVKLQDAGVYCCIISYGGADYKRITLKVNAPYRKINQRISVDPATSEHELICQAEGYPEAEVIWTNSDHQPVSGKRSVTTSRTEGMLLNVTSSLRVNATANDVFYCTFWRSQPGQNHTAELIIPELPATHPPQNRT

[4] = tested on: T cell response (BMDC co-cultured with allogenic CD4+ T cells); assay: Mouse mixed lymphocyte reaction (MLR) assay; type: cell-based; conditions: ELISA of supernatant after 3 days of culture, in comparison to isotype control or SQTGly Fc
Description: A mouse mixed lymphocyte reaction (MLR) assay was performed to assess the ability of AVA04-182 Fc to modulate the T cell response. In this MLR assay, BMDC (bone marrow dendritic cells) were generated from the bone marrow of one (1) C57BL/6 mouse, cultured for seven (7) days in the presence of GM-CSF. Cells were then co-cultured with allogenic CD4+ T cells isolated from the spleen of a Balb/c mouse using negative selection. The MLR assay was performed in the presence or absence of the test products (AVA04-182 Fc, SQTgly Fc [SEQ ID NO: 120; Affimer Fc fusion without PD-L1 targeting], Avelumab and its isotype control, HuIgG1) and controls (anti-mouse PD-L1 clone 10F9.G2 and its isotype control, rat IgG2b). Test products were evaluated at three concentrations (700, 70 and 7 nM) and the controls at one concentration (70 nM). After 3 days of culture, cell culture supernatant was harvested and the secretion of interferon γ (IFNγ) and interleukin-2 (IL-2) was evaluated using ELISA. The anti-mouse PD-L1 and Avelumab induced an increase in IL-2 (data not shown) and IFNγ secretion, in comparison to their isotype controls (FIG. 4). Similarly, AVA04-182 Fc treatment led to an increase in IL-2 (data not shown) and IFNγ secretion at all concentrations tested, in comparison to SQTGly Fc (FIG. 4).

[5] = molecular target: T1, human PD-L1 Fc (R&D Systems) chimeric protein (human, UniProt Q9NZQ7 19-239); assay: binding ELISA on plate-coated human PD-L1 Fc, detection with biotinylated anti-cystatin A and streptavidin-HRP; the table gives no unit, nM is the x axis of the curve
T1 construct: Bought reagent; also called human PD-L1 Fe; not shown: Fc part of the bought R&D Systems chimera
T1 sequence (Q9NZQ7 19-239, change not shown): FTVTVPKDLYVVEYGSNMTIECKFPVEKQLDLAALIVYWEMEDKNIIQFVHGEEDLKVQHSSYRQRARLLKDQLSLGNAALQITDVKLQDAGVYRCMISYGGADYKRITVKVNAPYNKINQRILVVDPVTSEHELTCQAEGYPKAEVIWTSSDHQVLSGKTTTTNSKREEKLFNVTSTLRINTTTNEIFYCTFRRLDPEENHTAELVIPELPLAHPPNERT

With CC(C)[C@H](N)C(=O)N1CCC[C@H]1B(O)O [VbP, Val-boroPro] the Induction of pyroptosis (AML cell lines) was “induces pyroptosis”, the “Escape of tumour growth at Day 13” value [1] was “none of the mice showed escape of tumour growth” and the “LDH release in the presence of rhFAPα” value (J774A.1 cells; 25 nM rhFAPα) was “significant LDH release”. For the same molecule, the “LDH release in the absence of rhFAPα” value (J774A.1 cells; no rhFAPα) was “significant LDH release”, the MTD [2] was 0.025 mg VbP/kg and the “Efficacy against MV4-11 AML cells in vivo” value (MV4-11 AML cells) was “demonstrates efficacy”.

Work on Anti muPD-L1 (10F9.G2) (antibody) yielded an IC50 [3] of 0.692 nM.

In the case of Avelumab: anti-PD-L1 antibody, the IFNγ secretion [4] is reported as “increase” and the IL-2 secretion ([4]; data not shown) is reported as “increase”.

B1: AVA04-251 BH cys-800 (designed binder)
chain: MIPRGLSEAKPATPEIQEIVDKVKPQLEEKTNETYGKLEAVQYKTQVLAREGRQDWVLSTNYYIKVRAGDNKYMHLKVFNGPWVPFPHQQLADRVLTGYQVDKNKDDELTGFAEAAAKEAAAKEAAAKEAAAKEAAAKEAAAKMIPRGLSEAKPATPEIQEIVDKVKPQLEEKTNETYGKLEAVQYKTQVLAREGRQDWVLSTNYYIKVRAGDNKYMHLKVFNGPWVPFPHQQLADRVLTGYQVDKNKDDELTGFLQAAAHHHHHHC
modifications: IRDye 800CW conjugated with maleimide chemistry (to the single Cys residue)
notes: Dye conjugate of m3; also called conjugated Affimer
Molecule B1 has an EC50 [5] of 0.0904 nM.

B2: AVA04-251 BH cys (designed binder)
chain: B1 chain
notes: Produced in E. coli BL21; also called parental molecule
In the case of B2, the EC50 [5] is reported as 0.0355 nM.
